In ChEMBL document CHEMBL3885861, “Open TG-GATES”:

Species on record: Rattus norvegicus
Assay: Open TG-GATES - Regimen: Daily Repeat
Assay type: toxicity, organism-based, Sprague-Dawley
Design: regimen Daily Repeat, gender Male, age 6 weeks
Conditions: in vivo, po, 10 mg/kg, route gavage, dose level Middle; for APTT / Bas / Eos / Fbg / Hb / Ht / Lym / MCH / MCHC / MCV / Mono / Neu / PT / Plat / RBC / Ret / WBC: tissue Blood; for KIDNEY_L / KIDNEY_R / KIDNEY_TOTAL: tissue Kidney; for LIVER: tissue Liver; for A/G / ALP / ALT / AST / BUN / CRE / Ca / Cl / DBIL / GLC / IP / K / LDH / Na / PL / RALB / TBIL / TC / TG / TP / gamma-GTP: tissue Plasma

Nc1c2c(nc3ccccc13)CCCC2 [TACRINE]
TERMINAL_BW (72 h, time 3 day): 217.3 g
APTT (72 h, time 3 day): 19.9 s
Bas (72 h, time 3 day): 0%
Eos (72 h, time 3 day): 1%
Fbg (72 h, time 3 day): 290 mg/dL
Hb (72 h, time 3 day): 13.5 g/dL
Ht (72 h, time 3 day): 38.4%
Lym (72 h, time 3 day): 76.8%
MCH (72 h, time 3 day): 21 pg
MCHC (72 h, time 3 day): 35.3%
MCV (72 h, time 3 day): 59.5 fL
Mono (72 h, time 3 day): 2.2%
Neu (72 h, time 3 day): 19.2%
PT (72 h, time 3 day): 15.7 s
Plat (72 h, time 3 day): 128 x10_4/uL
RBC (72 h, time 3 day): 645.4 x10_4/ul
Ret (72 h, time 3 day): 5.5%
WBC (72 h, time 3 day): 74.8 x10_2/uL
KIDNEY_L (72 h, time 3 day): 0.9 g
KIDNEY_R (72 h, time 3 day): 1 g
KIDNEY_TOTAL (72 h, time 3 day): 1.9 g
LIVER (72 h, time 3 day): 9.2 g
A/G (72 h, time 3 day): 1.2
ALP (72 h, time 3 day): 1488.6 IU/L
ALT (72 h, time 3 day): 42.6 IU/L
AST (72 h, time 3 day): 75.4 IU/L
BUN (72 h, time 3 day): 14.4 mg/dL
CRE (72 h, time 3 day): 0.2 mg/dL
Ca (72 h, time 3 day): 10.6 mg/dL
Cl (72 h, time 3 day): 108 meq/L
DBIL (72 h, time 3 day): 0 mg/dL
GLC (72 h, time 3 day): 186.2 mg/dL
IP (72 h, time 3 day): 7.1 mg/dL
K (72 h, time 3 day): 4.4 meq/L
LDH (72 h, time 3 day): 253 IU/L
Na (72 h, time 3 day): 142 meq/L
PL (72 h, time 3 day): 153.6 mg/dL
RALB (72 h, time 3 day): 3.1 g/dL
TBIL (72 h, time 3 day): 0.014 mg/dL
TC (72 h, time 3 day): 78.6 mg/dL
TG (72 h, time 3 day): 94.4 mg/dL
TP (72 h, time 3 day): 5.7 g/dL
gamma-GTP (72 h, time 3 day): 1 IU/L
TERMINAL_BW ([…], time 7 day): 245.3 g
TERMINAL_BW ([…], time 14 day): 297.7 g
TERMINAL_BW ([…], time 28 day): 336.4 g
APTT ([…], time 7 day): 22.4 s
Bas ([…], time 7 day): 0%
Eos ([…], time 7 day): 0.6%
Fbg ([…], time 7 day): 307.4 mg/dL
Hb ([…], time 7 day): 14 g/dL
Ht ([…], time 7 day): 40.1%
Lym ([…], time 7 day): 77.4%
MCH ([…], time 7 day): 20.9 pg
MCHC ([…], time 7 day): 34.8%
MCV ([…], time 7 day): 60 fL
Mono ([…], time 7 day): 2.2%
Neu ([…], time 7 day): 18.8%
PT ([…], time 7 day): 15.8 s
Plat ([…], time 7 day): 117.3 x10_4/uL
RBC ([…], time 7 day): 668 x10_4/ul
Ret ([…], time 7 day): 5.4%
WBC ([…], time 7 day): 103.5 x10_2/uL
APTT ([…], time 14 day): 23.1 s
Bas ([…], time 14 day): 0%
Eos ([…], time 14 day): 0.8%
Fbg ([…], time 14 day): 317.6 mg/dL
Hb ([…], time 14 day): 14.7 g/dL
Ht ([…], time 14 day): 41.8%
Lym ([…], time 14 day): 84.4%
MCH ([…], time 14 day): 20.8 pg
MCHC ([…], time 14 day): 35.1%
MCV ([…], time 14 day): 59.4 fL
Mono ([…], time 14 day): 1.4%
Neu ([…], time 14 day): 12.6%
PT ([…], time 14 day): 15.5 s
Plat ([…], time 14 day): 117.2 x10_4/uL
RBC ([…], time 14 day): 704.4 x10_4/ul
Ret ([…], time 14 day): 4.3%
WBC ([…], time 14 day): 95.3 x10_2/uL
APTT ([…], time 28 day): 22.6 s
Bas ([…], time 28 day): 0%
Eos ([…], time 28 day): 1%
Fbg ([…], time 28 day): 301.8 mg/dL
Hb ([…], time 28 day): 15.1 g/dL
Ht ([…], time 28 day): 41.2%
Lym ([…], time 28 day): 79.6%
MCH ([…], time 28 day): 20.1 pg
MCHC ([…], time 28 day): 36.7%
MCV ([…], time 28 day): 54.7 fL
Mono ([…], time 28 day): 2%
Neu ([…], time 28 day): 16.6%
PT ([…], time 28 day): 16.4 s
Plat ([…], time 28 day): 93.2 x10_4/uL
RBC ([…], time 28 day): 752 x10_4/ul
Ret ([…], time 28 day): 2.9%
WBC ([…], time 28 day): 95.4 x10_2/uL
KIDNEY_L ([…], time 7 day): 1 g
KIDNEY_R ([…], time 7 day): 1.1 g
KIDNEY_TOTAL ([…], time 7 day): 2.1 g
KIDNEY_L ([…], time 14 day): 1.1 g
KIDNEY_R ([…], time 14 day): 1.2 g
KIDNEY_TOTAL ([…], time 14 day): 2.3 g
KIDNEY_L ([…], time 28 day): 1.2 g
KIDNEY_R ([…], time 28 day): 1.2 g
KIDNEY_TOTAL ([…], time 28 day): 2.4 g
LIVER ([…], time 7 day): 10.5 g
LIVER ([…], time 14 day): 12.6 g
LIVER ([…], time 28 day): 12.9 g
A/G ([…], time 7 day): 1.2
ALP ([…], time 7 day): 1555.6 IU/L
ALT ([…], time 7 day): 42.2 IU/L
AST ([…], time 7 day): 82.8 IU/L
BUN ([…], time 7 day): 15.8 mg/dL
CRE ([…], time 7 day): 0.2 mg/dL
Ca ([…], time 7 day): 10.6 mg/dL
Cl ([…], time 7 day): 108.2 meq/L
DBIL ([…], time 7 day): 0.004 mg/dL
GLC ([…], time 7 day): 180 mg/dL
IP ([…], time 7 day): 6.8 mg/dL
K ([…], time 7 day): 4.1 meq/L
LDH ([…], time 7 day): 235.6 IU/L
Na ([…], time 7 day): 141 meq/L
PL ([…], time 7 day): 145.2 mg/dL
RALB ([…], time 7 day): 3 g/dL
TBIL ([…], time 7 day): 0.024 mg/dL
TC ([…], time 7 day): 72.2 mg/dL
TG ([…], time 7 day): 120.8 mg/dL
TP ([…], time 7 day): 5.5 g/dL
gamma-GTP ([…], time 7 day): 1 IU/L
A/G ([…], time 14 day): 1.2
ALP ([…], time 14 day): 1291.4 IU/L
ALT ([…], time 14 day): 36.8 IU/L
AST ([…], time 14 day): 67.8 IU/L
BUN ([…], time 14 day): 18.4 mg/dL
CRE ([…], time 14 day): 0.2 mg/dL
Ca ([…], time 14 day): 10.8 mg/dL
Cl ([…], time 14 day): 108 meq/L
DBIL ([…], time 14 day): 0 mg/dL
GLC ([…], time 14 day): 185.2 mg/dL
IP ([…], time 14 day): 6.4 mg/dL
K ([…], time 14 day): 4 meq/L
LDH ([…], time 14 day): 168 IU/L
Na ([…], time 14 day): 142.6 meq/L
PL ([…], time 14 day): 152.6 mg/dL
RALB ([…], time 14 day): 3.2 g/dL
TBIL ([…], time 14 day): 0.004 mg/dL
TC ([…], time 14 day): 75 mg/dL
TG ([…], time 14 day): 136.2 mg/dL
TP ([…], time 14 day): 5.8 g/dL
gamma-GTP ([…], time 14 day): 1 IU/L
A/G ([…], time 28 day): 1.1
ALP ([…], time 28 day): 1046.8 IU/L
ALT ([…], time 28 day): 37 IU/L
AST ([…], time 28 day): 63.4 IU/L
BUN ([…], time 28 day): 18.8 mg/dL
CRE ([…], time 28 day): 0.2 mg/dL
Ca ([…], time 28 day): 10.5 mg/dL
Cl ([…], time 28 day): 107.4 meq/L
DBIL ([…], time 28 day): 0 mg/dL
GLC ([…], time 28 day): 188.8 mg/dL
IP ([…], time 28 day): 6.7 mg/dL
K ([…], time 28 day): 4.1 meq/L
LDH ([…], time 28 day): 116 IU/L
Na ([…], time 28 day): 141.8 meq/L
PL ([…], time 28 day): 142 mg/dL
RALB ([…], time 28 day): 3.1 g/dL
TBIL ([…], time 28 day): 0.006 mg/dL
TC ([…], time 28 day): 70.4 mg/dL
TG ([…], time 28 day): 121 mg/dL
TP ([…], time 28 day): 5.9 g/dL
gamma-GTP ([…], time 28 day): 1.2 IU/L
